Experimental data: the supplement of paper PMC10307832

Legend:
Assay in all cases: relative viability (nuclei count vs DMSO), 5 days (fraction); higher = more cells survive
Ispinesib + Linsitinib = compound: Cc1ccc(C(=O)N(CCCN)[C@@H](c2nc3cc(Cl)ccc3c(=O)n2Cc2ccccc2)C(C)C)cc1 [Ispinesib] + C[C@]1(O)C[C@@H](c2nc(-c3ccc4ccc(-c5ccccc5)nc4c3)c3c(N)nccn32)C1 [Linsitinib] (partner 1 µM)
Summary of the method: (§1)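 Lung cancer cell lines were seeded in 1536-well plates and dosed by pin tool the next day, with either a single drug or a fixed anchor-drug dose combined with five library-drug doses (not always all listed) spaced in √10 steps. Five days later, one step fixed the cells and stained their nuclei (final 0.05% Triton X-100, 1% formaldehyde, 1 ug/ml Hoechst), and nuclei were counted on 4× images. Relative viability is the nuclei count in treated wells divided by the count in vehicle wells, and each value is the median of duplicate plates.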

Linsitinib + Foretinib = compound: C[C@]1(O)C[C@@H](c2nc(-c3ccc4ccc(-c5ccccc5)nc4c3)c3c(N)nccn32)C1 [Linsitinib] + COc1cc2c(Oc3ccc(NC(=O)C4(C(=O)Nc5ccc(F)cc5)CC4)cc3F)ccnc2cc1OCCCN1CCOCC1 [Foretinib] (partner 0.25 µM)
Summary of the method: as §1

Linsitinib + Bortezomib = compound: C[C@]1(O)C[C@@H](c2nc(-c3ccc4ccc(-c5ccccc5)nc4c3)c3c(N)nccn32)C1 [Linsitinib] + CC(C)C[C@H](NC(=O)[C@H](Cc1ccccc1)NC(=O)c1cnccn1)B(O)O [Bortezomib] (partner 0.002 µM)
Summary of the method: as §1

Ispinesib + Navitoclax = compound: Cc1ccc(C(=O)N(CCCN)[C@@H](c2nc3cc(Cl)ccc3c(=O)n2Cc2ccccc2)C(C)C)cc1 [Ispinesib] + CC1(C)CCC(c2ccc(Cl)cc2)=C(CN2CCN(c3ccc(C(=O)NS(=O)(=O)c4ccc(N[C@H](CCN5CCOCC5)CSc5ccccc5)c(S(=O)(=O)C(F)(F)F)c4)cc3)CC2)C1 [Navitoclax] (partner 0.5 µM)
Summary of the method: as §1

Cell Line | relative viability (Ispinesib + Linsitinib; first compound 0.001 µM) | relative viability (Ispinesib + Linsitinib; first compound 0.003162 µM) | relative viability (Ispinesib + Linsitinib; first compound 0.01 µM) | relative viability (Ispinesib + Linsitinib; first compound 0.03162 µM) | relative viability (Ispinesib + Linsitinib; first compound 0.1 µM) | relative viability (Linsitinib + Foretinib; first compound 0.01 µM) | relative viability (Linsitinib + Foretinib; first compound 0.03162 µM) | relative viability (Linsitinib + Foretinib; first compound 0.1 µM) | relative viability (Linsitinib + Foretinib; first compound 1 µM) | relative viability (Linsitinib + Bortezomib; first compound 0.01 µM) | relative viability (Linsitinib + Bortezomib; first compound 0.03162 µM) | relative viability (Linsitinib + Bortezomib; first compound 0.1 µM) | relative viability (Linsitinib + Bortezomib; first compound 1 µM) | relative viability (Ispinesib + Navitoclax; first compound 0.001 µM) | relative viability (Ispinesib + Navitoclax; first compound 0.003162 µM) | relative viability (Ispinesib + Navitoclax; first compound 0.01 µM) | relative viability (Ispinesib + Navitoclax; first compound 0.03162 µM) | relative viability (Ispinesib + Navitoclax; first compound 0.1 µM) | relative viability (Linsitinib + Bortezomib; first compound 0.3162 µM) | relative viability (Linsitinib + Foretinib; first compound 0.3162 µM)
HOP-62 | 0.99 | 1.14 | 0.952 | 1.05 | 0.742 | 1.09 | 1.05 | 1.06 | 1.16 | 0.857 | 0.488 | 1.03 | 0.379 | 1.19 | 1.12 | 1.53 | 1.12 | 0.171 |  | 
HCC-44 | 0.702 | 0.746 | 0.812 | 0.698 | 0.248 |  |  |  |  | 0.841 | 0.775 | 0.874 | 0.529 | 1.02 | 1 | 1.2 | 1.05 | 0.265 | 0.497 | 
NCI-H2170 |  |  |  |  |  | 0.994 | 1.05 | 0.974 | 0.963 |  |  |  |  | 0.617 | 0.61 | 0.624 | 0.324 | 0.258 |  | 0.773
NCI-H1395 | 1.1 | 1.04 | 0.966 | 0.407 | 0.436 | 0.98 | 1.01 | 1 | 0.998 |  |  |  |  | 1.32 | 1.1 | 1.16 | 0.553 | 0.326 |  | 0.957
NCI-H1650 |  |  |  |  |  | 1.2 | 0.902 | 1.12 | 1.03 | 0.208 | 0.202 | 0.184 | 0.223 | 1.33 | 1.32 | 1.23 | 0.258 | 0.25 | 0.182 | 0.697
NCI-H1944 | 1.24 | 1.38 | 1.18 | 0.975 | 0.979 | 0.921 | 1.02 | 0.821 | 0.674 |  |  |  |  | 0.994 | 1.09 | 1.02 | 0.785 | 0.806 |  | 0.674
NCI-H1793 | 0.866 | 1.02 | 0.961 | 0.707 | 0.562 | 0.629 | 0.765 | 0.643 | 0.681 |  |  |  |  | 0.464 | 0.729 | 0.382 | 0.394 | 0.405 |  | 0.602
NCI-H1792 | 0.45 | 0.52 | 0.492 | 0.25 | 0.392 |  |  |  |  | 0.971 | 0.953 | 0.928 | 0.704 | 0.827 | 0.825 | 0.594 | 0.299 | 0.516 | 0.775 | 
A549 | 0.628 | 0.551 | 0.769 | 0.434 | 0.0756 | 0.97 | 0.953 | 0.999 | 0.875 |  |  |  |  | 1.34 | 1.16 | 1.18 | 0.0508 | 0.0539 |  | 0.695
ChaGo-K-1 |  |  |  |  |  | 0.853 | 0.903 | 0.85 | 0.882 | 1.05 | 0.98 | 0.922 | 1 | 1.11 | 1.45 | 0.995 | 0.732 | 0.335 | 0.443 | 0.762
SK-MES-1 | 1.1 | 1.09 | 1.21 | 1.11 | 0.261 | 0.865 | 1.08 | 0.999 | 0.81 |  |  |  |  | 1.47 | 1.2 | 1.14 | 0.922 | 0.227 |  | 0.778
SW 900 |  |  |  |  |  | 0.894 | 1.07 | 0.881 | 0.503 |  |  |  |  |  |  |  |  |  |  | 0.857
ABC-1 | 0.94 | 0.874 | 0.965 | 0.376 | 0.338 | 1.23 | 0.924 | 1.05 | 1.76 | 0.325 | 0.291 | 0.276 | 0.252 |  |  |  |  |  | 0.284 | 0.747
NCI-H661 | 0.535 | 0.528 | 0.462 | 0.494 | 0.605 | 0.974 | 1.07 | 1.01 | 1 | 0.893 | 0.801 | 0.761 | 0.749 |  |  |  |  |  | 0.986 | 0.932
NCI-H1563 | 1.29 | 1.19 | 1.27 | 1.1 | 0.844 | 0.865 | 0.984 | 0.98 | 0.903 | 0.835 | 0.86 | 0.87 | 0.827 |  |  |  |  |  | 0.719 | 0.98
NCI-H2342 |  |  |  |  |  | 1.06 | 1.05 | 1.06 | 0.959 |  |  |  |  |  |  |  |  |  |  | 1.01
NCI-H1623 |  |  |  |  |  | 0.871 | 0.913 | 0.85 | 0.671 |  |  |  |  |  |  |  |  |  |  | 
LK-2 | 0.805 | 0.328 | 0.521 | 0.435 | 0.267 | 1.27 | 1.24 | 1.21 | 1.22 |  |  |  |  | 0.93 | 0.808 | 1.01 | 0.661 | 0.298 |  | 1.08
NCI-H358 | 0.785 | 0.671 | 0.735 | 0.397 | 0.236 | 0.62 | 0.701 | 0.607 | 0.365 |  |  |  |  |  |  |  |  |  |  | 0.538
LCLC-103H | 1.12 | 1.25 | 1.21 | 1.04 | 1.02 | 0.75 | 0.771 | 0.751 | 0.704 | 1.11 | 0.951 | 1.17 | 0.892 |  |  |  |  |  | 1.05 | 0.709
NCI-H650 | 0.995 | 0.958 | 0.887 | 0.358 | 0.245 | 1.04 | 1.08 | 0.969 | 0.966 | 0.721 | 0.768 | 0.863 | 0.584 |  |  |  |  |  |  | 0.782
